From patent US12173088B2, “Anti-microbial peptides” (priority 2018, dated 2024)
≈ marks a conversion by molar mass, not a printed value. Where two headings read alike, the source gives them in different places. Peptide text beside a SMILES is read from it.

Columns and labels:
E. coli ampC E416-7 = type: cell-based, Escherichia coli; details: Table 7
From the text: The bacterial strains used include the Gram-positive strains Staphylococcus aureus USA300 LAC, S. epidermidis 1457, and Bacillus subtilis 168, as well as the Gram-negative isolates Escherichia coli K12 and Acinetobacter baumannii B2367-12. Additional, drug resistance strains include Gram-positive Enterococcus faecium V286-17 (VRE) and S. aureus M838-17 (MRSA) and Gram-negative E. coli E423-17, E. coli E416-17 (ampC), and P. aeruginosa E411-17. Bacteria were cultivated in tryptic soy broth (TSB) (BD Bioscience, MD).
The antibacterial activity of peptides was evaluated using a standard broth microdilution protocol with minor modifications as described (Mishra, et al. (2012) J. Am. Chem. Soc., 134:12426-12429). In brief, logarithmic phase bacterial cultures (i.e., optical density at 600 nm≈0.5) were diluted to OD600 0.001 and partitioned into a 96-well polystyrene microplate at 90 μL per well. After treatment with 10 μL of peptide solutions two fold diluted to various concentrations, microplates were incubated at 37° C. overnight and read on a ChroMate® 4300 Microplate Reader at 630 nm (GMI, Ramsey, MN). […] To study the influence of medium conditions on the antimicrobial activity of peptides against S. aureus USA300, up to 200 mM sodium chloride (NaCl), 2 mM of calcium chloride, 5-10% of human serum, mouse plasma, fluid, or supernatants of tissue homogenates were included into the assays.

P. aeruginosa PAO1 = type: cell-based, Pseudomonas aeruginosa; details: PAO1
Outline: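 Broth microdilution in tryptic soy broth: log-phase cultures (OD600 ≈0.5) diluted to OD600 0.001, given two-fold peptide dilutions, incubated overnight at 37° C. Growth read at 630 nm.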

S. aureus USA300 = type: in vivo, Staphylococcus aureus
Method: Female C57BL/6 mice (6 weeks old) were purchased from Charles River. After environment adaptation, mice were induced neutropenic by administering two doses of cyclophosphamide on day 1 (150 mg/kg) and Day 4 (100 mg/kg). This cyclophosphamide administration was skipped for experiments using non-neutropenic mice (i.e., normal mice). On day 5, mice were infected with S. aureus USA300 LAC (˜2×10^6 CFU per mouse) via intraperitoneal injection (i.p.). For the treatment groups, mice were i.p. treated 2 hours post infection with peptides at a single dose of 5 mg/kg. Both positive and negative controls were included. At the end of the experiments, all animals were sacrificed according to institutional guidelines. Organs, including spleen, lung, kidney, and liver, were harvested, weighed, placed in sterile PBS and stored on ice. Harvested animal organs were subsequently homogenized using homogenizer (Omni, Kennesaw, GA). Proper dilutions, especially for untreated control groups, were made to get countable colonies. Blood agar plates were then incubated overnight at 37° C. The bacteria grown on plates were enumerated and plotted using the Graph pad Prism software.
Female C57BL/6 or Balb/c mice (6 weeks old) were purchased from Charles River. The mice were induced neutropenic by administering two doses of cyclophosphamide on day 1 (150 mg/kg) and Day 4 (100 mg/kg). On day 5, mice were infected with S. aureus USA300 (˜2×10^6 CFU per mouse) or K. pneumoniae E406-17 (˜5×10^5 CFU per mouse) via intraperitoneal injection (i.p.). For the treatment groups, mice were i.p. or intravenous (i.v.) treated 2 hours post infection with peptides at a single dose of 5, 10, or 15 mg/kg. Both positive and negative controls are used. At the end of the experiments, all animals were sacrificed according to institutional guidelines. […] The CFU of each mouse was plotted as an individual point and error bars represent the deviation within the experimental group. * p<0.05 ** p<0.01, ***p<0.001 and NS represents no significance (determined by Mann-Whitney test).

[1] = Stability in mouse plasma and peritoneal fluid; type: in vitro ADME; details: murine peritoneal fluids or plasma for 3 hours
Method: Stability of horine and verine was evaluated in the presence of mouse plasma and peritoneal fluid using SDS-PAGE electrophoresis. […] […] The gels were stained using the Coomassie Brilliant Blue G-250 dye.

Liver microsomal assay = type: in vitro ADME; details: in one hour
[2] = Cell viability assay (MTS); type: cell-based; details: human, read-out: LC50
Method: Peptides assessed for potential cytotoxicity using HepaRG (human hepatic progenitor cell line) and HEK-293 (human embryonic kidney) cells. Briefly, cells were seeded at a density of 1×10^4 per well in a tissue culture 96-well plate. For HepaRG cells, the working medium is prepared by adding the HepaRG Supplement to 100 ml/500 ml of Williams' Medium E and 1 ml/5 ml of GlutaMAX-1. For HEK-293 cells, DMEM supplemented with 10% fetal bovine serum (FBS) for both cell lines, and incubated at 37° C. in a 5% CO2 atmosphere for 24 hours. Culture medium was aspirated and replaced with fresh serum free media. Cells were exposed to different concentration of horine and verine for 1 hour at 37° C. in a 5% CO2 atmosphere. Post-incubation, the cells were washed and incubated with 100 μL of HepaRG specific/DMEM media containing 20 μL of MTS reagent for 2 hours at 37° C. Absorbance was read at 492 nm using a ChroMate® microplate reader (GMI).

Toxicity to cells = type: cell-based; details: human, MRC9 human lung fibroblasts; read-out: LC50 (the source's name)
[3] = HEK-293 (human embryonic kidney) cells, HEK293
[4] = HepaRG (human hepatic progenitor cell line)

SMILES: CC(C)C[C@H](NC(=O)[C@H](CC(C)C)NC(=O)[C@H](CCCCN)NC(=O)[C@H](CC(C)C)NC(=O)CNC(=O)[C@H](CC(C)C)NC(=O)[C@H](CO)NC(=O)[C@H](CC(C)C)NC(=O)[C@H](CC(C)C)NC(=O)[C@H](CC(C)C)NC(=O)[C@H](CCCCN)NC(=O)[C@H](CC(C)C)NC(=O)CN)C(N)=O [DFT561, GLKLLLSLGLKLL] (H-GLKLLLSLGLKLL-NH2; N-terminus and C-terminus assumed)
- MIC E. coli ampC E416-7 (E. coli ampC E416-7): >50 µM
- MIC PA (P. aeruginosa PAO1) (P. aeruginosa PAO1): >25 µM
- Killing (S. aureus USA300; USA300, in vivo, 5 mg/kg): up to 90%

SMILES: CC(C)C[C@H](NC(=O)[C@H](Cc1c[nH]c2ccccc12)NC(=O)[C@H](Cc1c[nH]c2ccccc12)NC(=O)[C@@H](N)Cc1c[nH]c2ccccc12)C(=O)N[C@@H](CCCNC(=N)N)C(=O)N[C@@H](CCCNC(=N)N)C(=O)N[C@@H](CCCNC(=N)N)C(=O)N[C@@H](Cc1c[nH]c2ccccc12)C(N)=O [Horine, WWWLRRRW] (H-WWWLRRRW-NH2; N-terminus and C-terminus assumed)
- MIC P. aeruginosa PAO1 (P. aeruginosa PAO1): 12.5 µM (≈ 16.8 µg/mL)
- Stability after incubation [1]: stable and active
- Degradation in liver microsomal assay (Liver microsomal assay): 5000
- CC50 at 1 hour [2, 3]: > 100 µM
- CC50 at 1 hour [2, 4]: > 80 µM
- CC50 (Toxicity to cells): > 35 µM

SMILES: CN[C@H](CC(C)C)C(=O)N[C@H]1C(=O)N[C@@H](CC(N)=O)C(=O)N[C@H]2C(=O)N[C@H]3C(=O)N[C@H](C(=O)N[C@H](C(=O)O)c4cc(O)cc(O)c4-c4cc3ccc4O)[C@H](O)c3ccc(c(Cl)c3)Oc3cc2cc(c3O[C@@H]2O[C@H](CO)[C@@H](O)[C@H](O)[C@H]2O[C@H]2C[C@](C)(N)[C@H](O)[C@H](C)O2)Oc2ccc(cc2Cl)[C@H]1O [Vancomycin]
- CFU decrease (S. aureus USA300; spleen, lung, kidney, liver, 10 mg/kg, positive control): 1-4 logs

SMILES: CC(C)[C@H](NC(=O)[C@H](Cc1c[nH]c2ccccc12)NC(=O)[C@H](Cc1c[nH]c2ccccc12)NC(=O)[C@H](Cc1c[nH]c2ccccc12)NC(=O)[C@H](Cc1c[nH]c2ccccc12)NC(=O)[C@H](CCCNC(=N)N)NC(=O)[C@H](CCCNC(=N)N)NC(=O)[C@@H](N)CCCNC(=N)N)C(N)=O [Verine, RRRWWWWV] (H-RRRWWWWV-NH2; N-terminus and C-terminus assumed)
- Stability after incubation [1]: stable and active
- Degradation in liver microsomal assay (Liver microsomal assay): 5000
- CC50 at 1 hour [2, 3]: > 80 µM
- CC50 at 1 hour [2, 4]: > 80 µM
- CC50 (Toxicity to cells): > 25 µM
